Literature values as cited in US20170112856A1, “PHARMACEUTICAL COMPOSITION FOR TREATING CANCER IN AN INDIVIDUAL SUBJECT SUFFERING CANCER” (MA SHEN KAI RUEI CO., LTD., priority 2015, published 2017).

Columns and labels:
[1] = tested on: murine macrophages RAW264.7; conditions: LPS-induction
[2] = tested on: human colorectal cancer cells (COLO 205)
[3] = tested on: normal intestinal epithelial cells (FHC cells)
[4] = tested on: human HL60 leukemia cells

Compound: 4-acetyl-Antroquinonol B [Composition 4-acetyl-AQB]
- amount of free radicals of nitric oxide [1]: effectively reducing

Compound: Cc1cc(O)c2c(c1O)OCO2 [2,3-(methylenedioxy)-6-methyl-benzene-1,4-diol]
- amount of free radicals of nitric oxide [1]: effectively reducing

Compound: COc1cc(C)c(O)c(OC)c1O [2,4-dimethoxy-6-methyl-benzene-1,3-diol]
- amount of free radicals of nitric oxide [1]: effectively reducing

Compound: COc1cc(C)c(OC)c2c1OCO2 [SY-1]
- programmed death of cell ([2]; COLO 205, higher doses): induce programmed death of cell
- cell cycle ([2]; COLO 205, lower doses): remain in the G0/G1 phase
- impact on normal cells [3]: does not have an impact

Compound: C=C(CC[C@@H](C)[C@H]1CC[C@H]2C3=C(C(=O)C[C@]12C)[C@@]1(C)CCC(=O)[C@@H](C)C1CC3=O)C(C)C(=O)O (stereo partly drawn) [Zhankuic acid A, 4 α-methylergost-8,24(28)-dien-3,7,11-trion-26-oic acid]
- apoptosis [4]: inducing apoptosis

Compound: Antroquinonol B [AQB]
- amount of free radicals of nitric oxide [1]: effectively reducing
